Molecular target: T1, KCNT1 (KNa1.1, Slack) (Homo sapiens, UniProt Q5JUK3)
T1 construct: expressed in transfected cells; host or cells: HEK-TREX (tetracycline-inducible HEK cell line)
T1 sequence (Q5JUK3 1-1230): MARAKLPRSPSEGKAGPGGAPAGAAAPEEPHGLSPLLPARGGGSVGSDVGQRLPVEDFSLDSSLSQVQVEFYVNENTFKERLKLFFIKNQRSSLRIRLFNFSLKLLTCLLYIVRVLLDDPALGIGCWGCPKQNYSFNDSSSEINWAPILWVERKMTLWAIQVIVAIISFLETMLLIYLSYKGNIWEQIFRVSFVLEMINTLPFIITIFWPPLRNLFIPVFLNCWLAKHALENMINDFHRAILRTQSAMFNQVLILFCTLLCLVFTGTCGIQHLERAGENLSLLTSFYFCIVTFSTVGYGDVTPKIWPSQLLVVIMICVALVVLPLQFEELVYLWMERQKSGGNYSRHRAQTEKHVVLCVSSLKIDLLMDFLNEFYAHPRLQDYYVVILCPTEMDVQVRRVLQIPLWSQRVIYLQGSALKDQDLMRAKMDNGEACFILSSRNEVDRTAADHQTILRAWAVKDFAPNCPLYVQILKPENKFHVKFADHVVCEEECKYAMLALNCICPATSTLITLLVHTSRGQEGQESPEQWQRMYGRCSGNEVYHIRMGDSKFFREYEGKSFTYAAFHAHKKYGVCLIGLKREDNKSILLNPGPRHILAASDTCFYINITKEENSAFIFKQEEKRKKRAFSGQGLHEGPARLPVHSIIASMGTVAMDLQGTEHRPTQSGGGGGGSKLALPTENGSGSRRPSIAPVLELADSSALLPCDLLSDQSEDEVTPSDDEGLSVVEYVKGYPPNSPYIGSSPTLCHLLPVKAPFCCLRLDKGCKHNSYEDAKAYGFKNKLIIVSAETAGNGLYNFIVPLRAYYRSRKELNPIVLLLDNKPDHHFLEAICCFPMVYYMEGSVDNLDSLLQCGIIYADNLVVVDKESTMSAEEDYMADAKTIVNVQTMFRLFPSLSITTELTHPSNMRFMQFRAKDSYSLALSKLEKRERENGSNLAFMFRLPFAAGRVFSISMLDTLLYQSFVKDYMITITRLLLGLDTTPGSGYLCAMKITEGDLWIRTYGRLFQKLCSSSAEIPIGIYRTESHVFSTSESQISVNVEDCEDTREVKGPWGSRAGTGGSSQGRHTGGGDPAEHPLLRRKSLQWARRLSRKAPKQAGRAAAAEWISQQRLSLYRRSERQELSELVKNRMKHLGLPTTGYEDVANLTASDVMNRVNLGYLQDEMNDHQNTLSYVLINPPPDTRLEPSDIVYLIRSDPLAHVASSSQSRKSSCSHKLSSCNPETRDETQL
Experiment: KCNT1-WT-Basal patch clamp assay (SyncroPatch 384PE, HEK-TREX inducible cell line)
Format: cell-based
Settings: tetracycline inducible HEK-TREX cells; perforated patch; holding -80 mV, 100 ms step to 0 mV; room temperature; read-out: KCNT1 WB IC50
Procedure: KCNT1-WT-Basal—Patch Clamp Assay
Inhibition of KCNT1 (KNa1.1, Slack) was evaluated using a tetracycline inducible cell line (HEK-TREX). Currents were recorded using the SyncroPatch 384PE automated, patch clamp system. Pulse generation and data collection were performed with PatchController384 V1.3.0 and DataController384 V1.2.1 (Nanion Technologies). The access resistance and apparent membrane capacitance were estimated using built-in protocols. Current were recorded in perforated patch mode (10 μM escin) from a population of cells. The cells were lifted, triturated, and resuspended at 800,000 cells/ml. The cells were allowed to recover in the cell hotel prior to experimentation. Currents were recorded at room temperature. The external solution contained the following (in mM): NaCl 105, NMDG 40, KCl 4, MgCl2 1, CaCl2 5 and HEPES 10 (pH=7.4, Osmolarity ˜300 mOsm). The extracellular solution was used as the wash, reference and compound delivery solution. The internal solution contained the following (in mM): NaCl 70, KF 70, KCl 10, EGTA 5, HEPES 5 and Escin 0.01 (pH=7.2, Osmolarity ˜295 mOsm). Escin is made at a 5 mM stock in water, aliquoted, and stored at −20° C. The compound plate was created at 2× concentrated in the extracellular solution. The compound was diluted to 1:2 when added to the recording well. The amount of DMSO in the extracellular solution was held constant at the level used for the highest tested concentration. A holding potential of −80 mV with a 100 ms step to 0 mV was used. Mean current was measured during the step to 0 mV. […] The average mean current from 3 sweeps was calculated and the % inhibition of each compound was calculated. The % Inhibition as a function of the compound concentration was fit with a Hill equation to derive IC50, slope, min and max parameters. If KCNT1 inhibition was less than 50% at the highest tested concentration or if an IC50 could not be calculated, then a percent inhibition was reported in place of the IC50.

| IC50 [nM] | Structure (SMILES) |
| --- | --- |
| ≥ 20000 | CCS(=O)(=O)Nc1ccc(C(=O)N[C@H]2CCc3cc(Cl)ccc32)cc1 [Compound II-17, N-[(1S)-5-chloroindan-1-yl]-4-(ethylsulfonylamino)benzamide] |
| ≤ 1000 | O=C(N[C@@H]1CCc2cc(Cl)ccc21)c1ccc(S(=O)(=O)C(F)(F)F)cc1 [Compound II-38] |
| 1000 to 20000 | CCS(=O)(=O)N(C)c1ccc(C(=O)N[C@H]2CCc3cc(Cl)ccc32)cc1 [Compound II-19] |
| ≥ 20000 | NC(=O)c1ccc(C(=O)N[C@H]2CCCc3cc(Cl)ccc32)s1 (single isomer, unassigned) [Compound I-30] |
| ≤ 1000 | CCS(=O)(=O)c1ccc(C(=O)N[C@@H]2CCc3cc(Cl)ccc32)s1 [Compound I-34] |
| ≤ 1000 | NC(=O)c1ccc(C(=O)N[C@@H]2CCCc3cc(Cl)ccc32)s1 (single isomer, unassigned) [Compound I-31] |
| 1000 to 20000 | NS(=O)(=O)c1ccc(C(=O)N[C@@H]2CCc3cc(Cl)ccc32)o1 [Compound I-3] |
| ≥ 20000 | CN(c1ccc(C(=O)NC2CCc3cc(Cl)ccc32)cc1)S(C)(=O)=O (single isomer, unassigned) [Compound II-1, N-(5-chloroindan-1-yl)-4-[methyl(methylsulfonyl)amino]benzamide] |
| ≤ 1000 | Cc1ccc(O)c(C(=O)N[C@@H]2CCc3cc(Cl)ccc32)c1 [Compound III-12] |
| ≤ 1000 | NC(=O)c1ccc(C(=O)N[C@@H]2CCc3cc(Cl)ccc32)s1 [Compound I-20] |
| > 20000 | COc1ccc(C(=O)NC2CCc3cc(Cl)ccc32)c(O)c1 (single isomer, unassigned) [Compound III-1, N-(5-chloroindan-1-yl)-2-hydroxy-4-methoxy-benzamide] |
| ≤ 1000 | CC(=O)Nc1cccc(C(=O)N[C@@H]2CCc3cc(Cl)ccc32)c1O [Compound III-16] |
| 1000 to 20000 | CS(=O)(=O)c1ccc(C(=O)N[C@@H]2CCc3cc(Cl)ccc32)c(F)c1 [Compound II-36] |
| ≥ 20000 | CS(=O)(=O)Nc1ccc(C(=O)NC2CCCc3cc(Cl)ccc32)cc1 (single isomer, unassigned) [Compound II-52, N-(6-chlorotetralin-1-yl)-4-(methanesulfonamido)benzamide] |
| 1000 to 20000 | CNS(=O)(=O)c1ccc(C(=O)N[C@@H]2CCCc3cc(Cl)ccc32)s1 (single isomer, unassigned) [Compound I-23] |
| ≤ 1000 | CN(C)S(=O)(=O)c1ccc(C(=O)N[C@@H]2CCc3cc(Cl)ccc32)s1 [Compound I-15] |
| > 20000 | CS(=O)(=O)Nc1ccc(C(=O)NC2CCc3cc(F)ccc32)cc1 (single isomer, unassigned) [Compound II-59, N-[5-fluoroindan-1-yl]-4-(methanesulfonamido)benzamide] |
| ≤ 1000 | O=C(N[C@@H]1CCc2cc(Cl)ccc21)c1ccc(S(=O)(=O)N2CCCC2)s1 [Compound I-17] |
| 1000 to 20000 | CN(c1ccc(C(=O)N[C@H]2CCc3cc(Cl)ccc32)cc1)S(=O)(=O)C1CC1 [Compound II-20] |
| ≤ 1000 | NS(=O)(=O)c1ccc(C(=O)N[C@@H]2CCc3cc(Cl)ccc32)cc1 [Compound II-25] |
| ≤ 1000 | O=C(N[C@@H]1CCc2cc(Cl)ccc21)c1cccc(F)c1O [Compound III-9] |
| ≤ 1000 | CO[C@@H]1CCN(S(=O)(=O)c2ccc(C(=O)N[C@@H]3CCc4cc(Cl)ccc43)s2)C1 [Compound I-46] |
| ≤ 1000 | O=C(N[C@@H]1CCc2cc(Cl)ccc21)c1cc(F)ccc1O [Compound III-6] |
| 1000 to 20000 | NS(=O)(=O)c1csc(C(=O)N[C@@H]2CCc3cc(Cl)ccc32)c1 [Compound I-5] |
| 1000 to 20000 | CS(=O)(=O)c1ccc(C(=O)N[C@H]2CCCc3cc(Cl)ccc32)cc1 (single isomer, unassigned) [Compound II-55] |
| ≤ 1000 | CNS(=O)(=O)c1ccc(C(=O)N[C@@H]2CCc3cc(Cl)ccc32)cc1 [Compound II-27] |
